In US4792609A, “Indoline and 1,2,3,4-tetrahydroquinoline N(dicarboalkoxyvinyl) substituted derivatives” (Bayer Aktiengesellschaft, priority 1985, dated 1988):

Tests used:
[1] = solubility at RT in cosmetic oils; type: physicochemical; conditions: for solubility at RT, groundnut/paraffin oil = 1:9: groundnut/paraffin oil = 1:9, printed as symbol
[2] = UV absorption (λmax, molar and specific extinction, intrinsic coloration); type: physicochemical; conditions: for specific extinction: text on Table 2, compared with compounds of formula I, in words; for E (molar extinction coefficient): Table 1, at λmax

Row | Compound | solubility at RT, groundnut oil [1] [%] | specific extinction E^1 ([2]; Table 2) | λmax ([2]; Table 2) [nm] | specific extinction [2] | λmax ([2]; Table 1) [nm] | E (molar extinction coefficient) [2] [L/mol/cm] | solubility at RT, groundnut oil ([1]; printed as symbol) | solubility at RT, groundnut/paraffin oil = 1:9 [1]
1 | CC(C)COC(=O)C(=CN1c2ccccc2CC1C)C(=O)OCC(C)C (stereo not drawn) [(4), N-(dicarbo-iso-butoxyvinyl)-2-methylindoline] | – | 730 | 331 | – | 331 | 26200 | .infin. | .infin.
2 | CCOC(=O)C(=CN1CCc2ccccc21)C(=O)OCC [(1), N-(dicarboethoxyvinyl)indoline] | – | 1114 | 330 | – | 330 | 32200 | .infin. | .infin.
3 | CCOC(=O)C(C(=O)OCC)=C(C)N1CCc2ccccc21 [(3), N-(α-methyl-β,β-dicarboethoxyvinyl)indoline] | – | – | 338 | – | 338 | – | .infin. | .infin.
4 | CCOC(=O)C(=CN1CCCc2ccccc21)C(=O)OCC [(6), N-(dicarboethoxyvinyl)-1,2,3,4-tetrahydroquinoline] | – | 878 | 317 | – | 317 | 26700 | .infin. | .infin.
5 | CCCCCCOC(=O)C(=CN1c2ccccc2CC1C)C(=O)OCCCCCC (stereo not drawn) [(5), N-(dicarbohexyloxyvinyl)-2-methylindoline] | – | 582 | 332 | – | 332 | 25300 | .infin. | .infin.

Results, then the compound that gave them:

Row | solubility at RT, groundnut oil [1] [%] | specific extinction E^1 ([2]; Table 2) | λmax ([2]; Table 2) [nm] | specific extinction [2] | λmax ([2]; Table 1) [nm] | E (molar extinction coefficient) [2] [L/mol/cm] | solubility at RT, groundnut oil ([1]; printed as symbol) | solubility at RT, groundnut/paraffin oil = 1:9 [1] | Compound
6 | 1 | – | – | – | – | – | – | – | COc1ccc(C(=O)CC(=O)c2ccc(OC)cc2)cc1 [Comparison example 3, dianisoylmethane, reference compound]
7 | 0.8 | 645 | 351 | markedly lower specific extinction | – | – | – | – | O=C(c1ccc(O)cc1O)c1ccc(O)cc1O [Comparison example 2, 2,2',4,4'-tetrahydroxybenzophenone, reference compound]
8 | – | 1008 | 330 | – | 330 | 30000 | .infin. | .infin. | CCOC(=O)C(=CN1c2ccccc2CC1C)C(=O)OCC (stereo not drawn) [Compound (2), N-(dicarboethoxyvinyl)-2-methylindoline]
9 | – | 160 | 330 | markedly lower specific extinction | – | – | – | – | COc1ccc(C(=O)c2cc(S(=O)(=O)O)c(OC)cc2O)c(O)c1 [Comparison example 1, sodium 2,2'-dihydroxy-4,4'-dimethoxybenzophenone-5-sulphonate, reference compound]
